# Reference: paper PMC8443589, “Modelling human liver fibrosis in the context of non-alcoholic steatohepatitis using a microphysiological system” (Communications Biology, 2021)
# Values joined by “and” are separate entries in the source; they are usually repeats but may differ in a detail not shown here. Equal entries are not always repeated.
# Experiments:
# [1] = system: liver MPS NASH model + TGFβ (PHH, KC and HSC co-cultures, high fat); assay: Secreted cytokine profile of enhanced liver MPS NASH model with TGFβ dosed with OCA or ELF (Fig 6a); format: cell-based, human; conditions: for IL-1RA production, fold change compared to control / IL-4 production, fold change compared to control / IL-6 production, fold change compared to control / IL-8 production, fold change compared to control / IP-10 production, fold change compared to control / MCP-1 production, fold change compared to control / MIP-1a production, fold change compared to control / MIP-1b production, fold change compared to control / VEGF production, fold change compared to control: vs NASH + TGFβ control
# Source text: (§1) The systems biology approach identified TGFβ to be a key driver in creating a more advanced NASH phenotype in the MPS model, with enhanced fibrotic markers and reduced liver function. […] Therefore, we explored how effective pharmacological intervention would be for NASH microtissues with high NPC numbers supplemented with TGFβ and exposed them to varying concentrations of OCA and ELF QD as previously described (Supp. Fig. 6a). […] OCA had the greatest effect on IL-1Rα whereas ELF had the greatest effect on MCP-1 reflecting the fact that while both candidate drugs have anti-inflammatory properties, but their mechanisms of action are different. […] Finally, we used our quantitative fibrosis imaging assay to assess the effect of each candidate drug on collagen-1 deposition and α-SMA expression (Fig. 6c). […] Both candidate drugs caused a significant reduction in collagen-1 deposition and α-SMA expression, with the highest concentrations of OCA and ELF causing an 80% reduction in α-SMA expression and a 75% reduction in collagen-1 deposition (Fig. 6c).
# (§2) Fig. 6 Using enhanced liver MPS NASH model with TGFβ, Obeticholic acid and Elafibranor modulate disease phenotype to a greater extent than in standard NASH model. PHH, KC and HSC co-cultures were cultured in the MPS platform under high-fat conditions and dosed with varying concentrations of Obeticholic acid (OCA) and Elafibranor (ELF) QD or vehicle control for 10 days, following an initial 4-day pre-culture phase. Throughout the compound dosing period TGFβ was also dosed onto all microtissues (NASH only vehicle control samples were also included in the study for comparison, which were not treated with TGFβ or dosed with any compound). a The secreted cytokine profile from treated liver microtissues was compared to determine the effects of each compound on the inflammatory profile of the liver with samples analysed at day 8 and 14 of the culture. Data were normalised by Z-transformation to allow comparison of all analytes (white = undetected). b The expression of fibrosis-associated biomarkers was analysed on day 14 media samples and compared to NASH + TGFβ control samples. c Liver microtissues were stained for collagen-type I, α-SMA, nuclei (DAPI), phalloidin (green) and imaged by confocal microscopy. Representative images are shown and scale bars 200 µm. Staining of microtissues was quantified by measuring total fluorescence intensity throughout individual microtissues, each data point represents an average of all microtissues per MPS culture (min 8, max 20). All datapoints shown with error bars highlighting means ± SD, all data from a minimum of three independent cultures: all comparisons were made to NASH + TGFβ control samples.
# Cytokine profiles in cell culture medium samples were also analysed by Luminex array for determination of 38 analytes in total, consisting of cytokines, chemokines, and growth factors using the MILLIPLEX MAP Human Cytokine/Chemokine Magnetic Bead Panel - Premixed 38 Plex (Merck Millipore, USA).
# (§3) Liver microtissues were cultured for 4 days in HEP-FAT medium, before dosing with obeticholic acid or elafibranor. Both compounds were dissolved in DMSO, diluted in cell culture medium (final DMSO concentration ≤1%) and added to microtissues during a full medium change every two days and in addition on the intervening days compounds were spiked into the media to increase drug concentration back to desired concentrations. Cultures were maintained in the presence of the compound, for a total of 10 days in the presence or absence of TGFβ.
# [2] = system: liver MPS NASH model + TGFβ (PHH, KC and HSC co-cultures, high fat); assay: Fibrosis-associated soluble biomarkers (TIMP-1, pro-collagen 1) in liver MPS NASH model with TGFβ dosed with OCA or ELF (Fig 6b); format: cell-based, human; conditions: NASH + TGF, individual replicates, listed as OCA
# Source text: as §1, §2
# Soluble biomarkers in cell culture medium from the MPS were analysed by enzyme-linked immunosorbent assay (ELISA); IL-6 was measured by Human IL-6 DuoSet ELISA (R&D Systems); MCP-1 was measured by Human CCL2/MCP-1 DuoSet ELISA (R&D Systems); pro-collagen 1 was measured by Human Pro-Collagen I α1 DuoSet (R&D Systems); TIMP-1 was measured by Human TIMP-1 Quantikine ELISA Kit (R&D Systems); Fibronectin was measured by Human Fibronectin DuoSet ELISA (R&D Systems); YKL-40 was measured by Human Chitinase 3-like 1 Quantikine ELISA Kit (R&D Systems); Albumin secretion was measured by Human Albumin AssayMax™ ELISA kit (Assay Pro, St. Charles, MO). For all assays, the manufacturer’s protocol was followed.
# as §3
structure (smiles),measurement,setting,value
CC[C@H]1[C@@H](O)[C@@H]2[C@H](CC[C@]3(C)[C@@H]([C@H](C)CCC(=O)O)CC[C@@H]23)[C@@]2(C)CC[C@@H](O)C[C@@H]12 [Obeticholic acid],"IL-1RA production, fold change compared to control","[1]; 0.25 µM, Day 8",1.08 fold change
same,"IL-4 production, fold change compared to control","[1]; 0.25 µM, Day 8",1.009 fold change
same,"IL-6 production, fold change compared to control","[1]; 0.25 µM, Day 8",1.014 fold change
same,"IL-8 production, fold change compared to control","[1]; 0.25 µM, Day 8",1.005 fold change
same,"IP-10 production, fold change compared to control","[1]; 0.25 µM, Day 8",1.251 fold change
same,"MCP-1 production, fold change compared to control","[1]; 0.25 µM, Day 8",1.076 fold change
same,"MIP-1a production, fold change compared to control","[1]; 0.25 µM, Day 8",0.8432 fold change
same,"MIP-1b production, fold change compared to control","[1]; 0.25 µM, Day 8",0.7821 fold change
same,"VEGF production, fold change compared to control","[1]; 0.25 µM, Day 8",1.067 fold change
same,"IL-1RA production, fold change compared to control","[1]; 0.25 µM, Day 14",0.5028 fold change
same,"IL-4 production, fold change compared to control","[1]; 0.25 µM, Day 14",0.8171 fold change
same,"IL-6 production, fold change compared to control","[1]; 0.25 µM, Day 14",0.4566 fold change
same,"IL-8 production, fold change compared to control","[1]; 0.25 µM, Day 14",0.6873 fold change
same,"IP-10 production, fold change compared to control","[1]; 0.25 µM, Day 14",1.095 fold change
same,"MCP-1 production, fold change compared to control","[1]; 0.25 µM, Day 14",0.7086 fold change
same,"MIP-1a production, fold change compared to control","[1]; 0.25 µM, Day 14",0.8386 fold change
same,"VEGF production, fold change compared to control","[1]; 0.25 µM, Day 14",1.001 fold change
same,"IL-1RA production, fold change compared to control","[1]; 5 µM, Day 8",0.6972 fold change
same,"IL-4 production, fold change compared to control","[1]; 5 µM, Day 8",1.1399 fold change
same,"IL-6 production, fold change compared to control","[1]; 5 µM, Day 8",1.2962 fold change
same,"IL-8 production, fold change compared to control","[1]; 5 µM, Day 8",1.283 fold change
same,"IP-10 production, fold change compared to control","[1]; 5 µM, Day 8",1.04 fold change
same,"MCP-1 production, fold change compared to control","[1]; 5 µM, Day 8",0.9329 fold change
same,"MIP-1a production, fold change compared to control","[1]; 5 µM, Day 8",0.9021 fold change
same,"MIP-1b production, fold change compared to control","[1]; 5 µM, Day 8",0.7383 fold change
same,"VEGF production, fold change compared to control","[1]; 5 µM, Day 8",1.4206 fold change
same,"IL-1RA production, fold change compared to control","[1]; 5 µM, Day 14",0.2072 fold change
same,"IL-4 production, fold change compared to control","[1]; 5 µM, Day 14",1.048 fold change
same,"IL-6 production, fold change compared to control","[1]; 5 µM, Day 14",0.937 fold change
same,"IL-8 production, fold change compared to control","[1]; 5 µM, Day 14",0.8309 fold change
same,"IP-10 production, fold change compared to control","[1]; 5 µM, Day 14",1.661 fold change
same,"MCP-1 production, fold change compared to control","[1]; 5 µM, Day 14",0.6601 fold change
same,"MIP-1a production, fold change compared to control","[1]; 5 µM, Day 14",1.231 fold change
same,"MIP-1b production, fold change compared to control","[1]; 5 µM, Day 14",1.514 fold change
same,"VEGF production, fold change compared to control","[1]; 5 µM, Day 14",2.374 fold change
same,"IL-1RA production, fold change compared to control","[1]; 12.5 µM, Day 8",0.3318 fold change
same,"IL-4 production, fold change compared to control","[1]; 12.5 µM, Day 8",0.7385 fold change
same,"IL-6 production, fold change compared to control","[1]; 12.5 µM, Day 8",0.7346 fold change
same,"IL-8 production, fold change compared to control","[1]; 12.5 µM, Day 8",0.6207 fold change
same,"IP-10 production, fold change compared to control","[1]; 12.5 µM, Day 8",1.145 fold change
same,"MCP-1 production, fold change compared to control","[1]; 12.5 µM, Day 8",0.4485 fold change
same,"MIP-1a production, fold change compared to control","[1]; 12.5 µM, Day 8",1.263 fold change
same,"MIP-1b production, fold change compared to control","[1]; 12.5 µM, Day 8",1.247 fold change
same,"VEGF production, fold change compared to control","[1]; 12.5 µM, Day 8",1.208 fold change
same,"IL-1RA production, fold change compared to control","[1]; 12.5 µM, Day 14",0.02359 fold change
same,"IL-4 production, fold change compared to control","[1]; 12.5 µM, Day 14",0.2784 fold change
same,"IL-6 production, fold change compared to control","[1]; 12.5 µM, Day 14",0.3766 fold change
same,"IL-8 production, fold change compared to control","[1]; 12.5 µM, Day 14",0.4421 fold change
same,"IP-10 production, fold change compared to control","[1]; 12.5 µM, Day 14",0.932 fold change
same,"MCP-1 production, fold change compared to control","[1]; 12.5 µM, Day 14",0.2604 fold change
same,"MIP-1a production, fold change compared to control","[1]; 12.5 µM, Day 14",1.011 fold change
same,"MIP-1b production, fold change compared to control","[1]; 12.5 µM, Day 14",1.454 fold change
same,"VEGF production, fold change compared to control","[1]; 12.5 µM, Day 14",0.8682 fold change
same,cytokine on which the drug had the greatest effect,"[1]; NASH microtissues, high NPC, + TGFβ",IL-1Rα
same,Pro-collagen 1,[2]; 0.25 uM,444.17 pg/day and 318.9 pg/day and 467.42 pg/day
same,TIMP-1,[2]; 0.25 uM,197.88 pg/day and 287.39 pg/day and 303.89 pg/day
same,Pro-collagen 1,[2]; 5 uM,576.99 pg/day and 525.8 pg/day and 497.39 pg/day
same,TIMP-1,[2]; 5 uM,311.28 pg/day and 328.19 pg/day and 368.24 pg/day
same,Pro-collagen 1,[2]; 12.5 uM,448.27 pg/day and 351.02 pg/day and 505.76 pg/day
same,TIMP-1,[2]; 12.5 uM,365.14 pg/day and 327.97 pg/day and 326.64 pg/day
